Literature values in patent US20240207248A1, “METHODS, KITS AND COMPOSITIONS FOR REDUCING CHROMOSOMAL INSTABILITY IN CANCER CELLS” (BARUCH S. BLUMBERG INSTITUTE, priority 2021, published 2024).

System: aneuploid primary mouse embryonic fibroblasts carrying Robertsonian fusion chromosomes
Conditions: energy and proteotoxic stress-inducing compounds

Compound | selectivity against aneuploid primary mouse embryonic fibroblasts
NC(=O)c1ncn([C@@H]2O[C@H](CO)[C@@H](O)[C@H]2O)c1N [AICAR] | showed selectivity
C=CCNC1=C2C[C@@H](C)C[C@H](OC)[C@H](O)[C@@H](C)/C=C(\C)[C@H](OC(N)=O)[C@@H](OC)/C=C\C=C(/C)C(=O)NC(=CC1=O)C2=O [17-AAG] | showed selectivity
